In PMC6321601 (Molecules, 2018) one finds IC50 data, which are given here for six compounds.

Experiment [1] relates to L-O2 human normal liver cells. Kind of experiment: MTT assay, toxicity against L-O2 normal cells. It counts as cell-based. As to conditions: Homo sapiens, 72 h incubation, mean of three independent experiments. As for the experimental part:
(§1) HepG-2 human hepatocellular carcinoma cells and L-O2 human normal liver cells were maintained in DMEM culture medium supplemented with 10% FBS at 37 °C under a humidified atmosphere with 5% CO2.
(§2) HepG-2 and L-O2 cells in logarithmic growth phase were seeded into a 96-well plate at 5 × 10^3/well/200 µL. After 12 h, compounds at different concentrations were added and incubated for 72 h at 37 °C, 5% CO2. Then, 20 µL MTT (5 mg/mL) was added into each well and incubated for 4 h. The supernatant was discarded, and the precipitate was dissolved with DMSO. The absorbance of the optical density (OD) at 570 nm was detected using a microplate reader and the IC50 was calculated with GraphPad Prism 5.
For orientation: Tetrazolium dyes change colour on reduction, which living cells bring about.

In experiment [2] the test system is HepG-2 human hepatocellular carcinoma cells. The experiment in a line: MTT assay, proliferation of HepG-2 cells. It counts as cell-based. As to conditions: Homo sapiens, HepG2, 72 h incubation, mean of three independent experiments. As for the experimental part: as §1, §2

For orientation: IC50 means the midpoint of a concentration-inhibition curve. Higher therefore signals weaker potency. With `COc1cccc2c1C(=O)c1c(O)c3c(c(O)c1C2=O)C[C@@](O)(C(=O)CO)C[C@@H]3O[C@H]1C[C@H](N)[C@H](O)[C@H](C)O1` [ADR, adriamycin, reference compound], the IC50 worked out at 0.041 ± 0.013 µM in experiment [1] and 0.3 ± 0.05 µM in experiment [2].
Consider `CCC(=O)O[C@@H]1C[C@@]2(C)C3CC=C4C(C[C@H](O)C(=O)C4(C)C)[C@]3(C)C(=O)C[C@]2(C)C1[C@@](C)(O)C(=O)/C=C/C(C)(C)OC(C)=O` (stereo partly drawn) [Compound 3a, (2S,9R,13R,14S,16R)-17-((R,E)-6-Acetoxy-2-hydroxy-6-methyl-3-oxohept-4-en-2-yl)-2-hydroxy-4,4,9,13,14-pentamethyl-3,11-dioxo-2,3,4,7,8,9,10,11,12,13,14,15,16,17-tetradecahydro-1H-cyclopenta[a]phenanthren-16-yl propionate], for which the IC50 stood at 1.02 ± 0.58 µM in experiment [1] and 1.01 ± 0.04 µM in experiment [2].
Take `CC(=O)OC(C)(C)/C=C/C(=O)[C@](C)(O)C1[C@H](OC(=O)C2CCC2)C[C@@]2(C)C3CC=C4C(CC(O)C(=O)C4(C)C)[C@]3(C)C(=O)C[C@]12C` (stereo partly drawn) [Compound 3b, (9R,13R,14S,16R)-17-((R,E)-6-Acetoxy-2-hydroxy-6-methyl-3-oxohept-4-en-2-yl)-2-hydroxy-4,4,9,13,14-pentamethyl-3,11-dioxo-2,3,4,7,8,9,10,11,12,13,14,15,16,17-tetradecahydro-1H-cyclopenta[a]phenanthren-16-yl cyclobutanecarboxylate]: the IC50 in experiment [1] worked out at 0.52 ± 0.08 µM; in experiment [2] it was 0.54 ± 0.04 µM.
On the same counts, the results for `CC(=O)OC(C)(C)/C=C/C(=O)[C@](C)(O)C1[C@H](OC(=O)C2CCCC2)C[C@@]2(C)C3CC=C4C(C[C@H](O)C(=O)C4(C)C)[C@]3(C)C(=O)C[C@]12C` (stereo partly drawn) [Compound 3c, (2S,9R,13R,14S,16R)-17-((R,E)-6-Acetoxy-2-hydroxy-6-methyl-3-oxohept-4-en-2-yl)-2-hydroxy-4,4,9,13,14-pentamethyl-3,11-dioxo-2,3,4,7,8,9,10,11,12,13,14,15,16,17-tetradecahydro-1H-cyclopenta[a]phenanthren-16-yl cyclopentanecarboxylate] are 2.37 ± 0.09 µM and 2.45 ± 1.75 µM.
In the case of `CC(=O)OC(C)(C)/C=C/C(=O)[C@](C)(O)C1[C@H](OC(=O)CCCCNC(=O)OC(C)(C)C)C[C@@]2(C)C3CC=C4C(C[C@H](O)C(=O)C4(C)C)[C@]3(C)C(=O)C[C@]12C` (stereo partly drawn) [Compound 3d, (2S,9R,13R,14S,16R)-17-((R,E)-6-Acetoxy-2-hydroxy-6-methyl-3-oxohept-4-en-2-yl)-2-hydroxy-4,4,9,13,14-pentamethyl-3,11-dioxo-2,3,4,7,8,9,10,11,12,13,14,15,16,17-tetradecahydro-1H-cyclopenta[a]phenanthren-16-yl 5-((tert-butoxycarbonyl)amino)pentanoate], the concentration for half-maximal inhibition (IC50) in experiment [1] stood at 8.01 ± 0.47 µM; in experiment [2] it was 4.89 ± 0.92 µM.
On the same counts, the results for `CC(=O)OC(C)(C)/C=C/C(=O)[C@](C)(O)C1[C@H](OC(=O)CCCCN(C)C(=O)OC(C)(C)C)C[C@@]2(C)C3CC=C4C(C[C@H](O)C(=O)C4(C)C)[C@]3(C)C(=O)C[C@]12C` (stereo partly drawn) [Compound 3e, (2S,9R,13R,14S,16R)-17-((R,E)-6-Acetoxy-2-hydroxy-6-methyl-3-oxohept-4-en-2-yl)-2-hydroxy-4,4,9,13,14-pentamethyl-3,11-dioxo-2,3,4,7,8,9,10,11,12,13,14,15,16,17-tetradecahydro-1H-cyclopenta[a]phenanthren-16-yl 5-((tert-butoxycarbonyl)(methyl)amino)pentanoate] are 5.5 ± 2.48 µM and 9.28 ± 0.37 µM.
